{"source": "patent US20250120963A1", "about": "“METHODS AND COMPOSITIONS FOR THE TREATMENT OF THROMBOCYTOPENIA” (THE CHILDREN'S MEDICAL CENTER CORPORATION, priority 2023, published 2025)", "key": {"[1]": {"test_system": "MKs in calvaria bone marrow of vWF-GFP reporter mice", "conditions": "25 mg/kg, 7 days, vs DMSO", "protocol": "(§1) While MK ploidy is not directly causative of platelet production, higher ploidy MKs are associated with increased platelet production and ploidy status is indicative of more terminal MK maturation. To look further at live MKs, 2-photon intravital microscopy (2PIVM) was performed in the calvaria of vWF-GFP reporter mice (MKs and platelets are GFP+) treated with 25 mg/kg Niraparib or vehicle control DMSO for 7 days. Mice were anesthetized and a window in the calvaria was made to view the exposed bone marrow."}, "platelets": {"test_system": "platelets", "conditions": "platelets drawn on D11, 25 mg/kg; stimulated with ADP, TRAP or CRP; listed as niraparib", "protocol": "Platelets were drawn from mice at sacrifice on D11 (see FIG. 6), stimulated with agonists as indicated, and the MFI of activated αIIbβ3 measured by flow cytometry. Black markers=saline, gray markers=Niraparib, 25 mg/kg.\nPlatelets were drawn from mice at sacrifice on D11, stimulated with agonists as indicated, and the MFI of activated αIIbβ3 measured by flow cytometry. Black=saline, gray=Niraparib (25 mg/kg).\nas §1\nPlatelets were drawn from mice at sacrifice on D11, stimulated with agonists as indicated, and the MFI of activated αIIbβ3 measured by flow cytometry."}, "[2]": {"test_system": "lineage depleted murine bone marrow", "assay": "In vitro megakaryocyte differentiation: lineage depleted bone marrow cultured with TPO for 4 days with PARPi (VWF-GFP signal)", "format": "cell-based", "conditions": "for megakaryocyte differentiation / megakaryopoiesis in vitro: TPO, 4 days, PARPi vs vehicle", "protocol": "Lineage depleted bone marrow was cultured with TPO for 4 days in the presence of PARPi or vehicle controls. FIG. 14A) representative images of VWF-GFP signal. FIG. 14B) Mean normalized area of GFP signal (n=3). Error bars±SEM.Circles=Olaparib, squares=Niraparib, triangles=Rucaparib.\nLineage depleted bone marrow was cultured with TPO for 4 days in the presence of PARPi or vehicle controls (FIG. 14A-14B).\nLineage depleted murine bone marrow was cultured with TPO for 4 days in the presence of PARPi or vehicle controls (FIG. 14A-14B)."}, "mice [3]": {"test_system": "mice", "protocol": "Mice were given Niraparib (25 mg/kg, intraperitoneal) or vehicle control for 11 days. FIG. 5A) Platelet counts and immature platelet fraction were measured on a SYSMEX™ hematology analyzer. Line graph: Black circles=Vehicle, gray squares=Niraparib. Bar charts: black=Vehicle, gray=Niraparib. FIG. 5B) MKs and MK-biased HSC counts. Dark gray=DMSO (vehicle), light gray=Niraparib. FIG. 5C) expression of γH2AX. Left bar=control, right bar=Niraparib, and FIG. 5D) MK ploidy was determined by flow cytometry (see FIGS. 9A-9C). n=4-5 mice per group. Gray=Niraparib, black=Vehicle.\nMice were treated with a subtherapeutic dosage of the PARP inhibitor Niraparib (25 mg/kg, intraperitoneal) or saline control for 11 days. The dosing schedule was as follows: 5 consecutive days of Niraparib treatment followed by 2 days of drug holiday (no injection), then 4 more consecutive days of Niraparib treatment. Mice were sacrificed on day 11. Platelet counts were taken on days 0 (pre-treatment), 2, 7, 9, and 11. Cohorts of mice were sacrificed on days 3 and 11 for quantification of bone MK and progenitor populations. […] To.\nNiraparib treatment were measured."}, "[4]": {"conditions": "0.03 μM vs vehicle"}, "patients": {"test_system": "patients", "conditions": "ITP patients; cited from earlier work"}, "C57B1/6 mice": {"test_system": "C57B1/6 mice", "assay": "Olaparib 50 mg/kg i.p. 5 consecutive days each week in C57B1/6 mice, 2-week and 4-week experiments", "format": "in vivo", "protocol": "C57B1/6 mice dosed with 50 mg/kg Olaparib intraperitoneally for 5 days consecutive days each week. Dark gray=vehicle, light gray=Olaparib.\nOlaparib treatment increases platelet count and alters megakaryocyte ploidy in mice. C57B1/6 mice were dosed with 50 mg/kg Olaparib intraperitoneally for 5 days consecutive days each week."}, "mice [5]": {"test_system": "mice", "conditions": "50 mg/kg daily i.p.; Niraparib 10 days, Olaparib 3 days", "protocol": "Mice were treated with 50 mg/kg Niraparib or Olaparib daily (i.p.) for 10 or 3 days, respectively, and platelet counts measured by SYSMEX™.\nFIG. 21A) Platelet count versus time. FIG. 21B) RBC count versus time. FIG. 21C) WBC count versus time.\n8,9 Mice were treated with 50 mg/kg of Niraparib and Olaparib […]."}, "[6]": {"test_system": "PARylation in megakaryocytes", "assay": "PARylation western blot in megakaryocytes subjected to hydrogen peroxide with or without Olaparib", "format": "cell-based, murine", "conditions": "10 mM H2O2; Olaparib 30 μM or 3 μM", "protocol": "(§2) Lineage depleted murine bone marrow was cultured with TPO for 4 days. Gradient-isolated megakaryocytes subjected to 10 mM of hydrogen peroxide (H2O2) in the presence or absence of Olaparib (30 μM or 3 μM). Cells were subsequently lysed in RIPA buffer containing protease inhibitor cocktail. A western blot to detect PARylation was performed. Equal loading was confirmed using an anti-GAPDH antibody. Impage shown is a representative of three experiments.\nas §2, with “megakaryocytes were” for “megakaryocytes”, “olaparib” for “Olaparib”, “performed (FIG. 18).” for “performed.”, “antibody.” for “antibody. Impage shown is a representative of three experiments.”"}}, "data": [{"compound": "NC(=O)c1cccc2cn(-c3ccc([C@@H]4CCCNC4)cc3)nc12", "note": "[Niraparib, 2-{4-[(3S)-Piperidin-3-yl]phenyl}-2H-indazole-7-carboxamide]", "values": [{"measurement": "MK number in bone marrow by 2-photon intravital microscopy", "setting": "[1]", "value": "increased MK number"}, {"measurement": "platelet function / activation", "setting": "platelets", "value": "does not affect platelet function"}, {"measurement": "megakaryocyte differentiation / megakaryopoiesis in vitro", "setting": "[2]", "value": "reduce megakaryocyte differentiation"}, {"measurement": "megakaryocyte maturation in vitro at higher doses", "setting": "[2]; lineage depleted bone marrow cells from WT mice, higher doses", "value": "decreased maturation"}, {"measurement": "megakaryocyte maturation in vitro at lower doses", "setting": "[2]; lineage depleted bone marrow cells from WT mice, lower doses", "value": "increased megakaryocyte maturation"}, {"measurement": "number of MK-committed HSCs positive for γH2AX", "setting": "mice [3]; 25 mg/kg i.p.", "value": "significantly increased"}, {"measurement": "γH2AX-positive MKPs", "setting": "mice [3]; 25 mg/kg i.p.", "value": "trend to more"}, {"measurement": "2N MKs", "setting": "mice [3]; 25 mg/kg i.p., 11 days", "value": "almost no 2N MKs"}, {"measurement": "number of 32N MKs", "setting": "mice [3]; 25 mg/kg i.p., 11 days", "value": "large increase"}, {"measurement": "MK number / MK counts", "setting": "mice [3]; 25 mg/kg i.p., bone marrow, flow cytometry, listed as niraparib", "value": "increases"}, {"measurement": "MK-committed HSCs (CD41+LT-HSCs) counts", "setting": "mice [3]; 25 mg/kg i.p., days preceding the increase in platelet counts", "value": "significant increase"}, {"measurement": "immature platelet fraction", "setting": "mice [3]; 25 mg/kg i.p., from day 7, vs saline", "value": "significant increase"}, {"measurement": "platelets, percent of normal levels", "setting": "mice [3]; Niraparib treated mice", "value": "> 150 % of normal levels"}, {"measurement": "MKs in day 3 HSPC/myeloid panel", "setting": "mice [3]; day 3, committed progenitors and classical hematopoiesis pathways", "value": "Significant increase in MKs"}, {"measurement": "day 11 HSPC/myeloid panel: HSC status", "setting": "mice [3]; day 11", "value": "HSC exhaustion"}, {"measurement": "megakaryopoiesis", "setting": "mice [3]; lower doses of niraparib", "value": "increase in megakaryopoiesis"}, {"measurement": "time to significant increase in mouse platelet count", "setting": "mice [3]; lower doses of niraparib, from initial administration", "value": "≤ 7", "unit": "days"}, {"measurement": "DNA damage accumulation in megakaryocytes, γH2AX immunofluorescence on long bones", "setting": "mice [3]; niraparib group", "value": "Increased DNA damage accumulation"}, {"measurement": "ploidy in vitro", "setting": "[4]", "value": "increases ploidy"}]}, {"compound": "Rituximab: treatment for ITP patients, which can take 4-6 weeks for peak results", "values": [{"measurement": "time for peak results", "setting": "patients", "value": "4-6 weeks"}]}, {"compound": "O=C(c1cc(Cc2n[nH]c(=O)c3ccccc23)ccc1F)N1CCN(C(=O)C2CC2)CC1", "note": "[Olaparib, 4-[(3-[(4-cyclopropylcarbonyl)piperazin-4-yl]carbonyl)-4-fluorophenyl]methyl (2H) phthalazin-1-one]", "values": [{"measurement": "platelet counts after day 6", "setting": "C57B1/6 mice; 2-week and 4-week experiments", "value": "returned to approximately baseline"}, {"measurement": "megakaryocyte ploidy shift after 2-weeks", "setting": "C57B1/6 mice; 2 weeks", "value": "fewer 8N and more 32N cells"}, {"measurement": "number of megakaryocytes (CD41+CD42+ flow cytometry of bone marrow) at 2-weeks", "setting": "C57B1/6 mice; 2 weeks", "value": "trend to fewer megakaryocytes"}, {"measurement": "megakaryocyte ploidy shift after 4-weeks", "setting": "C57B1/6 mice; 4 weeks", "value": "more 8N and fewer 16N cells"}, {"measurement": "number of megakaryocytes (CD41+CD42+ flow cytometry of bone marrow) at 4-weeks", "setting": "C57B1/6 mice; 4 weeks", "value": "trend to fewer megakaryocytes"}, {"measurement": "platelet count", "setting": "C57B1/6 mice; increase found at day 6, 2-week and 4-week experiments", "value": "surprising increase in platelet count"}, {"measurement": "megakaryocyte differentiation / megakaryopoiesis in vitro", "setting": "[2]", "value": "reduce megakaryocyte differentiation"}, {"measurement": "platelet counts at 50 mg/kg", "setting": "mice [5]", "value": "severe thrombocytopenia"}, {"measurement": "megakaryocyte PARylation", "setting": "[6]", "value": "reverses PARylation pattern"}]}]}
